ChEMBL document CHEMBL5214920, “Emerging impact of triazoles as anti-tubercular agent” (Eur J Med Chem, 2022)
Converted amounts (≈) assume the structure as drawn.

These compounds were tested on Mycobacterium tuberculosis (assay: Antitubercular activity against Mycobacterium tuberculosis H37Rv assessed as bacterial growth inhibition measured after 5 days by MABA method). Settings: 120 h, time 5 day.
Format: functional
For `O=C(O)c1cn(C2CC2)c2cc(N3CCNCC3)c(F)cc2c1=O` [CIPROFLOXACIN], the MIC was 3.12 µg/mL.
`CC1=CC(C)Oc2cc(OCc3cn(Cc4cc(=O)oc5ccc(Cl)cc45)nn3)ccc21` (stereo unspecified) showed an MIC of 6.25 µg/mL.
With `COc1ccc2nc(O)c(Cn3cnn(-c4ccccc4)c3=O)cc2c1` the MIC was 0.074 µM.
With `Cc1ccc2nc(O)c(Cn3cnn(-c4ccccc4)c3=O)cc2c1` the MIC90 was 0.073 µM (≈ 0.0243 µg/mL).
With `COc1ccc(-n2ncn(Cc3cc4cc(OC)ccc4nc3Cl)c2=O)cc1` the MIC was 0.075 µM.
`CCc1nn(-c2ccccc2)c(=O)n1N(Cc1ccc(O)cc1)CN(CC)CC` was tested, and the MIC was 6.25 µg/mL.
Compound `COc1ccc(-n2ncn(Cc3cc4cc(C)ccc4nc3Cl)c2=O)cc1` has an MIC of 0.077 µM.
`CCc1nn(-c2ccccc2)c(=O)n1N(Cc1ccccc1)Cn1nnc2ccccc21` showed an MIC of 3.12 µg/mL.
With `COc1ccc(-n2ncn(Cc3cc4ccccc4nc3Cl)c2=O)cc1` the MIC was 0.078 µM.
`CC1=CC(C)Oc2cc(OCc3cn(Cc4cc(=O)oc5ccc6ccccc6c45)nn3)ccc21` (stereo unspecified) was tested, and the MIC was 6.25 µg/mL.
`N/N=c1\ccc2ccccc2o1` showed an MIC of 50 µg/mL.
Compound `NC(=O)c1cnccn1` [PYRAZINAMIDE] has an MIC of 3.12 µg/mL.

What follows are compounds tested on Mycobacterium tuberculosis (assay: Antitubercular activity against Mycobacterium tuberculosis H37Rv assessed as bacterial growth inhibition measured after 24 hrs by agar micro dilution method). Settings: not given.
Format: functional
`Cc1ccc(-c2nc3n(n2)C2=NNC(c4ccc(Cl)cc4)C2S3)cc1` (stereo unspecified) was tested, and the MIC was 3.12 µg/mL (≈ 8.49 µM).
`COc1ccccc1C1ON=C2C1Sc1nc(-c3ccc(C)cc3)nn12` (stereo unspecified) was tested, and the MIC was 3.12 µg/mL (≈ 8.58 µM).
In the case of `Cc1ccc(-c2nc3n(n2)C2=NOC(c4cccc([N+](=O)[O-])c4)C2S3)cc1` (stereo unspecified), the MIC is reported as 3.12 µg/mL (≈ 8.24 µM).
`COc1ccc(C2ON=C3C2Sc2nc(-c4ccc(C)cc4)nn23)cc1` (stereo unspecified) showed an MIC of 3.12 µg/mL (≈ 8.58 µM).
`COc1ccc(C2NN=C3C2Sc2nc(-c4ccc(C)cc4)nn23)cc1` (stereo unspecified) showed an MIC of 3.12 µg/mL (≈ 8.6 µM).
Compound `Cc1ccc(-c2nc3n(n2)C2=NOC(c4ccc(Cl)cc4)C2S3)cc1` (stereo unspecified) has an MIC of 3.12 µg/mL (≈ 8.47 µM).
`Cc1ccc(-c2nc3n(n2)C2=NOC(c4ccc(N(C)C)cc4)C2S3)cc1` (stereo unspecified) showed an MIC of 3.12 µg/mL (≈ 8.28 µM).
In the case of `COc1ccccc1C1NN=C2C1Sc1nc(-c3ccc(C)cc3)nn12` (stereo unspecified), the MIC is reported as 3.12 µg/mL (≈ 8.6 µM).
Work on `Cc1ccc(-c2nc3n(n2)C2=NOC(c4ccc(Br)cc4)C2S3)cc1` (stereo unspecified) yielded an MIC of 3.12 µg/mL (≈ 7.56 µM).
`Cc1ccc(-c2nc3n(n2)C2=NOC(c4ccccc4)C2S3)cc1` (stereo unspecified) was tested, and the MIC was 3.12 µg/mL (≈ 9.34 µM).
Compound `Cc1ccc(-c2nc3n(n2)C2=NNC(c4ccc([N+](=O)[O-])cc4)C2S3)cc1` (stereo unspecified) has an MIC of 3.12 µg/mL (≈ 8.26 µM).
For `Cc1ccc(-c2nc3n(n2)C2=NNC(c4ccc(N(C)C)cc4)C2S3)cc1` (stereo unspecified), the MIC was 3.12 µg/mL (≈ 8.3 µM).
Work on `Cc1ccc(-c2nc3n(n2)C2=NNC(c4cccc([N+](=O)[O-])c4)C2S3)cc1` (stereo unspecified) yielded an MIC of 3.12 µg/mL (≈ 8.26 µM).
For `Cc1ccc(-c2nc3n(n2)C2=NNC(c4ccc(Br)cc4)C2S3)cc1` (stereo unspecified), the MIC was 3.12 µg/mL (≈ 7.58 µM).
Compound `Cc1ccc(-c2nc3n(n2)C2=NOC(c4ccc([N+](=O)[O-])cc4)C2S3)cc1` (stereo unspecified) has an MIC of 3.12 µg/mL (≈ 8.24 µM).

Each compound was assayed on Mycobacterium tuberculosis (assay: Antitubercular activity against Mycobacterium tuberculosis H37Rv assessed as bacterial growth inhibition measured after 7 days by REMA method). Settings: 168 h, time 7 day.
Format: functional
Compound `O=c1nc(NCc2cn(-c3ccc(Cl)cc3)nn2)sc2c(Cl)cc(Br)cc12` has an MIC of 0.03 µg/mL (≈ 0.0621 µM).
`O=c1nc(NCc2cn(-c3ccc(Cl)cc3)nn2)sc2c(Cl)cc(F)cc12` gave an MIC of 0.03 µg/mL (≈ 0.071 µM).
For `Cc1cc(=O)oc2cc(OCc3cn(CCCCCCCCn4cc(COc5cc6oc(=O)cc(C)c6cc5Cl)nn4)nn3)c(Cl)cc12`, the MIC was 1.56 µg/mL (≈ 2.25 µM).
`COc1ccc(-n2nc(C)cc2Cn2cncn2)cc1` gave an MIC of 100 µg/mL (≈ 371 µM).
In the case of `O=c1nc(NCc2cn(-c3ccc(Cl)cc3)nn2)sc2c(Cl)cc(C(F)(F)F)cc12`, the MIC is reported as 0.03 µg/mL (≈ 0.0635 µM).
In the case of `Cc1cc(=O)oc2cc(OCc3cn(CCCCCCCCCCn4cc(COc5cc6oc(=O)cc(C)c6cc5Cl)nn4)nn3)c(Cl)cc12`, the MIC is reported as 1.56 µg/mL (≈ 2.16 µM).
`O=c1nc(NCc2cn(-c3ccc(Cl)cc3)nn2)sc2c(Cl)cc(Cl)cc12` gave an MIC of 0.03 µg/mL (≈ 0.0684 µM).

The compounds below were run on Mycobacterium tuberculosis (assay: Antitubercular activity against Mycobacterium tuberculosis H37Rv ATCC 27294 assessed as bacterial growth inhibition measured after 5 days by MABA method). Settings: H37Rv ATCC 27294, 120 h, time 5 day.
Format: functional
With `O=C(NCc1cn(Cc2ccc(C(F)(F)F)cc2)nn1)c1cn2ccccc2n1` the MIC was 1.56 µg/mL.
Compound `Cc1nc2ncccn2c1C(=O)NCc1cn(Cc2ccc(C#N)cc2)nn1` has an MIC of 1.56 µg/mL.
With `COc1ccc(Cn2cc(CNC(=O)c3c(C)nc4ncccn34)nn2)cc1` the MIC was 1.56 µg/mL.
`COc1ccc(Cn2cc(CNC(=O)c3c(C)nc4ccccn34)nn2)cc1` was tested, and the MIC was 1.56 µg/mL.
`Cc1ccc(Cn2cc(CNC(=O)c3cn4ccccc4n3)nn2)cc1` was tested, and the MIC was 1.56 µg/mL.
With `O=C(O)c1cn(C2CC2)c2cc(N3CCNCC3)c(F)cc2c1=O` [CIPROFLOXACIN] the MIC was 3.12 µM.
In the case of `N#Cc1ccc(Cn2cc(CNC(=O)c3cn4cccnc4n3)nn2)cc1`, the MIC is reported as 1.56 µg/mL.
In the case of `O=C(NCc1cn(Cc2ccc([N+](=O)[O-])cc2)nn1)c1cn2cccnc2n1`, the MIC is reported as 1.56 µg/mL.
For `COc1ccc(Cn2cc(COCc3c(-c4ccccc4F)nc4ccccn34)nn2)cc1`, the MIC was 1.56 µg/mL.
`COc1ccc(Cn2cc(COCc3c(-c4ccc(OC)cc4)nc4ccccn34)nn2)cc1` showed an MIC of 1.56 µg/mL.
With `Cc1nc2ncccn2c1C(=O)NCc1cn(Cc2ccc([N+](=O)[O-])cc2)nn1` the MIC was 1.56 µg/mL.
`O=C(NCc1cn(Cc2ccc([N+](=O)[O-])cc2)nn1)c1cn2ccccc2n1` showed an MIC of 1.56 µg/mL.
`COc1ccc(Cn2cc(CNC(=O)c3cn4ccccc4n3)nn2)cc1` gave an MIC of 1.56 µg/mL.
Compound `O=C(NCc1cn(Cc2ccccc2F)nn1)c1cn2ccccc2n1` has an MIC of 1.56 µg/mL.
With `Cc1nc2ncccn2c1C(=O)NCc1cn(Cc2ccccc2F)nn1` the MIC was 1.56 µg/mL.
Work on `NC(=O)c1cnccn1` [PYRAZINAMIDE] yielded an MIC of 3.12 µg/mL.

What follows are compounds tested on Mycobacterium tuberculosis (assay: Antitubercular activity against Mycobacterium tuberculosis H37Rv assessed as bacterial growth inhibition measured after 7 days by direct susceptibility assay). Settings: 168 h, time 7 day.
Format: functional
In the case of `O=C(O)c1cn(C2CC2)c2cc(N3CCNCC3)c(F)cc2c1=O` [CIPROFLOXACIN], the MIC is reported as 3.12 µg/mL (≈ 9.42 µM).
